Assay results reported in PubChem BioAssay (NCI).
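Five concentrations, 48 hours, 96-well plates. Here, GI50 denotes the concentration required for 50% inhibition of growth. The concentration for full growth arrest is given as TGI.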

Tests used:
Assay in all cases: NCI-60 cell line screen, 48 h
LXFL 529 NSCLC = tested on: LXFL 529 NSCLC
DMS 114 small cell lung = tested on: DMS 114 small cell lung
A549 NSCLC = tested on: A549 NSCLC
DMS 273 small cell lung = tested on: DMS 273 small cell lung
SK-MEL-5 melanoma = tested on: SK-MEL-5 melanoma
U251 CNS = tested on: U251 CNS
TK-10 renal = tested on: TK-10 renal
OVCAR-5 ovarian = tested on: OVCAR-5 ovarian
NCI-H460 lung = tested on: NCI-H460 lung
HL-60(TB) leukemia = tested on: HL-60(TB) leukemia
NCI/ADR-RES ovarian = tested on: NCI/ADR-RES ovarian

Structure (SMILES) | TGI (LXFL 529 NSCLC) | TGI (DMS 114 small cell lung) | TGI (A549 NSCLC) | TGI (DMS 273 small cell lung) | TGI (SK-MEL-5 melanoma) | TGI (U251 CNS) | TGI (TK-10 renal) | TGI (OVCAR-5 ovarian) | TGI (NCI-H460 lung) | TGI (HL-60(TB) leukemia) | GI50 (HL-60(TB) leukemia) | GI50 (U251 CNS) | TGI (NCI/ADR-RES ovarian) | GI50 (OVCAR-5 ovarian) | GI50 (NCI-H460 lung)
N#CC1=C(c2ccccc2)OC2(N)OC(c3ccccc3)=C(C#N)C12C#N (centres undefined) | > 100 µM | > 100 µM | > 100 µM | > 100 µM | > 100 µM | > 100 µM | > 100 µM | > 100 µM | > 100 µM |  |  |  |  |  | 
O=C(OCc1ccccc1)n1cccc1 | > 100 µM | > 100 µM | > 100 µM | > 100 µM | > 100 µM | > 100 µM | > 100 µM | > 100 µM | > 100 µM | > 100 µM |  |  |  |  | 
CCOC(=O)CCn1cnc(N)n1 | > 100 µM | > 100 µM | > 100 µM | > 100 µM | > 100 µM | > 100 µM | > 100 µM | > 100 µM | > 100 µM | > 100 µM |  |  |  |  | 
N#CC(C#N)=C1CCC2C(=C(C#N)C#N)CCC12 (centres undefined) | > 100 µM | > 100 µM | > 100 µM | > 100 µM | > 100 µM | > 100 µM | > 100 µM | > 100 µM | > 100 µM | > 100 µM |  |  |  |  | 
O=C1c2ccccc2C(=O)c2sc(Nc3ccc([N+](=O)[O-])cc3)nc21 | 3.06 µM | 6.32 µM | 41.7 µM | 14.6 µM | 6.38 µM | 8.71 µM | 26.4 µM | 29.8 µM | 34.4 µM | 2.52 µM |  |  |  |  | 
Cc1ccc(NC(=O)CCC(=O)C2Cc3ccccc3C2=O)cc1C (centres undefined) | > 100 µM | > 100 µM | > 100 µM | > 100 µM | > 100 µM | > 100 µM | > 100 µM | > 100 µM | > 100 µM | > 100 µM |  |  |  |  | 
CC(C)(C)OC1=C(OC(C)(C)C)C(O)(c2ccc(Cl)cc2)C1=O (centres undefined) | > 100 µM | > 100 µM | > 100 µM | > 100 µM | > 100 µM | > 100 µM | > 100 µM | > 100 µM | > 100 µM | > 100 µM |  |  |  |  | 
O=c1[nH]c(=O)n(C2OC(CO)C(O)C2O)cc1F (centres undefined) | > 100 µM | > 100 µM | 38.4 µM | > 100 µM | 38.4 µM | > 48.7 µM | > 62.2 µM | 26 µM | 1.01 µM | 26.3 µM | 0.025 µM | 0.0669 µM | > 100 µM | 0.0442 µM | 0.00463 µM
CC[P+]1(c2ccccc2)CCCCC1 | > 100 µM | > 100 µM | > 100 µM | > 100 µM | > 100 µM | > 100 µM | > 100 µM | > 100 µM | > 100 µM | > 100 µM |  |  |  |  | 
CCc1cccc(NC(=O)c2cc(/C=C/c3ccccc3)[nH]c(=S)n2)c1 | > 100 µM | > 100 µM | > 100 µM | > 100 µM | > 100 µM | > 100 µM | > 100 µM | > 100 µM | > 100 µM | > 100 µM |  |  |  |  | 
CSc1cc(C(C)(C)C)ccc1C(O)c1ccc(C(C)(C)C)cc1SC | 32.5 µM | 22.5 µM | 24.4 µM | 26.9 µM | 27.5 µM | 27.1 µM | 30.6 µM | 27 µM | 31.4 µM | 21.2 µM |  |  |  |  | 
